Data: US4593104A, “2-halo-N-(azole-1-yl-methyl)-substituted acetanilides” (BASF Aktiengesellschaft, priority 1976, dated 1986)

Experiments:
Assay in all cases: preemergence treatment in the greenhouse, % damage
Sorgh. bicol. = type: in vivo, Sorghum bicolor
From the text: (§1) The vessels employed were plastic flowerpots having a volume of 300 cm^3; the substrate was a sandy loam containing about 1.5% humus. The seeds of the test plants (see Table 1) were sown shallow, and separated according to species. In the case of Cyperus esculentus, pregerminated tubers were planted. In the preemergence treatment, the active ingredients were then immediately applied to the surface of the soil. They were suspended or emulsified in water as the vehicle, and sprayed through atomizing nozzles. After the agents had been applied, the vessels were lightly sprinkler-irrigated to set germination and growth going, and to activate the chemical agents. The vessels were then covered with transparent plastic hoods until the plants had taken root. This cover ensured uniform germination of the test plants (to the extent that this was not impaired by the chemicals), and prevented readily volatile substances from evaporating.
(§2) For postemergence treatment, the plants were first grown to a height of from 3 to 10 cm, depending on their habit, before treated. Hoods were not placed on the pots. The experiments were set up in the greenhouse, hotter areas (25° to 40° C.) being preferred for heat-loving species, and 15° to 30° C. for plants from moderate climates. The experiments were carried out for from 4 to 6 weeks. During this period the plants were tended and their reaction to the various treatments was assessed. The following tables contain the substances investigated, the application rates in kg/ha of active ingredient, and the test plant species. Assessments were made on a 0 to 100 scale, 0 denoting no damage or normal emergence, and 100 denoting no emergence or complete destruction of at least the visible plant parts.

Setaria spp. = type: in vivo
From the text: as §1, §2

Amar. retro. = type: in vivo
From the text: as §1, §2

Bromus spp. = type: in vivo
From the text: as §1, §2

Echin. c.g. = type: in vivo
From the text: as §1, §2

Zea mays = type: in vivo
From the text: as §1, §2

Glyc. max = type: in vivo, Glycine max
From the text: as §1, §2

Alopec. myosur. = type: in vivo
From the text: as §1, §2

Cyp. diff. = type: in vivo
From the text: as §1, §2

Sorgh. halep. = type: in vivo
From the text: as §1, §2

Matric. spp. = type: in vivo
From the text: as §1, §2

Beta vulg. = type: in vivo, Beta vulgaris
From the text: as §1, §2

Gossyp. hirs. = type: in vivo, Gosspyium hirsutum
From the text: as §1, §2

Solanum nigrum = type: in vivo
From the text: as §1, §2

Euph. gen. = type: in vivo
From the text: as §1, §2

Cyper. escul. = type: in vivo, Cyperus esculentus
From the text: as §1, §2

| Structure (SMILES) | % damage (Setaria spp.; 1.0 kg/ha) [%] | % damage (Setaria spp.; 2.0 kg/ha) [%] | % damage (Amar. retro.; 2.0 kg/ha) [%] | % damage (Echin. c.g.; 1.0 kg/ha) [%] | % damage (Echin. c.g.; 2.0 kg/ha) [%] | % damage (Alopec. myosur.; 2.0 kg/ha) [%] | % damage (Cyp. diff.; 2.0 kg/ha) [%] | % damage (Sorgh. halep.; 2.0 kg/ha) [%] | % damage (Alopec. myosur.; 1.0 kg/ha) [%] | further results |
| --- | --- | --- | --- | --- | --- | --- | --- | --- | --- | --- |
| Cc1cc(C)n(CN(C(=O)CCl)c2ccccc2)n1 [Compound 34] | 80 | 95 | 100 | 90 | 90 | – | – | – | – | % damage (Sorgh. bicol.; 1.0 kg/ha): 0%; % damage (Sorgh. bicol.; 2.0 kg/ha): 10%; % damage (Amar. retro.; 1.0 kg/ha): 100%; % damage (Bromus spp.; 1.0 kg/ha): 95%; % damage (Bromus spp.; 2.0 kg/ha): 95%; % damage (Zea mays; 1.0 kg/ha): 0%; % damage (Zea mays; 2.0 kg/ha): 0%; % damage (Glyc. max; 1.0 kg/ha): 0%; % damage (Glyc. max; 2.0 kg/ha): 0% |
| Cc1ccc(C)c(N(Cn2nc(C)cc2C)C(=O)CCl)c1 [Compound 52] | – | 90 | 100 | – | 95 | 60 | 100 | 60 | – | – |
| Cc1cc(C)n(CN(C(=O)CCl)c2cccc(C)c2C)n1 [Compound 50] | 100 | – | – | 100 | – | – | – | – | 90 | % damage (Amar. retro.; 1.0 kg/ha): 100%; % damage (Cyp. diff.; 1.0 kg/ha): 100%; % damage (Sorgh. halep.; 1.0 kg/ha): 70% |
| CCc1cccc(C)c1N(Cn1cc(Cl)cn1)C(=O)CCl | 85 | – | – | 100 | – | – | – | – | 90 | % damage (Matric. spp.; 1.0 kg/ha): 60%; % damage (Bromus spp.; 1.0 kg/ha): 90%; % damage (Beta vulg.; 1.0 kg/ha): 0% |
| Cc1cccc(C(C)C)c1N(Cn1cccn1)C(=O)CCl [Compound 9] | – | 100 | 100 | – | 100 | 100 | 100 | 90 | – | – |
| Cc1cc(C)c(N(Cn2cccn2)C(=O)CCl)c(C)c1 [Compound 13] | – | 90 | 100 | – | 100 | 80 | 90 | 80 | – | – |
| Cc1cccc(N(Cn2cncn2)C(=O)CCl)c1C [Compound 139] | – | 30 | 40 | – | 90 | 70 | 90 | 50 | – | – |
| CCc1cccc(CC)c1N(Cn1ccc(C)n1)C(=O)CCl [Compound 70] | – | – | – | – | – | – | – | – | – | % damage (Amar. retro.; 0.25 kg/ha): 100%; % damage (Bromus spp.; 0.25 kg/ha): 100%; % damage (Sorgh. halep.; 0.25 kg/ha): 75% |
| Cc1cnn(CN(C(=O)CCl)c2c(C)cccc2C)c1 | 100 | – | – | 98 | – | – | – | – | 95 | % damage (Setaria spp.; 0.5 kg/ha): 92%; % damage (Alopec. myosur.; 0.5 kg/ha): 90%; % damage (Matric. spp.; 0.5 kg/ha): 100%; % damage (Matric. spp.; 1.0 kg/ha): 100%; % damage (Bromus spp.; 0.5 kg/ha): 95%; % damage (Bromus spp.; 1.0 kg/ha): 95%; % damage (Echin. c.g.; 0.5 kg/ha): 98%; % damage (Glyc. max; 0.5 kg/ha): 0%; % damage (Glyc. max; 1.0 kg/ha): 10%; % damage (Beta vulg.; 0.5 kg/ha): 0%; % damage (Beta vulg.; 1.0 kg/ha): 0% |
| Cc1cc(C)c(N(Cn2nc(C)cc2C)C(=O)CCl)c(C)c1 [Compound 46] | 100 | – | – | 100 | – | – | – | – | 60 | % damage (Amar. retro.; 1.0 kg/ha): 90%; % damage (Cyp. diff.; 1.0 kg/ha): 100%; % damage (Sorgh. halep.; 1.0 kg/ha): 80% |
| Cc1cc(C)n(CN(C(=O)CCl)c2c(C(C)C)cccc2C(C)C)n1 [Compound 44] | – | 90 | 80 | – | 90 | 80 | 100 | 40 | – | – |
| CCc1cccc(C)c1N(Cn1cc(C)cn1)C(=O)CCl | – | – | – | – | – | – | – | – | – | % damage (Echin. c.g.; 3.0 kg/ha): 100% |
| CC(C)c1ccccc1N(Cn1cccn1)C(=O)CCl [Compound 4] | – | 90 | 95 | – | 100 | 95 | 90 | 65 | – | – |
| Cc1cc(C)n(CN(C(=O)CCl)c2c(C)cccc2C(C)C)n1 [Compound 42] | 100 | – | – | 100 | – | – | – | – | 95 | % damage (Amar. retro.; 1.0 kg/ha): 100%; % damage (Cyp. diff.; 1.0 kg/ha): 100%; % damage (Sorgh. halep.; 1.0 kg/ha): 90% |
| CC(C)c1cccc(C(C)C)c1N(Cn1cccn1)C(=O)CCl [Compound 11] | – | 80 | 90 | – | 100 | 90 | 100 | 70 | – | – |
| CCc1cccc(CC)c1N(Cn1cccn1)C(=O)CCl [Compound 8] | – | – | – | – | – | – | – | – | – | % damage (Amar. retro.; 0.25 kg/ha): 95%; % damage (Bromus spp.; 0.25 kg/ha): 100%; % damage (Sorgh. halep.; 0.25 kg/ha): 85% |
| CCc1cccc(CC)c1N(Cn1nc(C)c(Cl)c1C)C(=O)CCl [Compound 108] | – | 90 | 100 | – | 100 | 70 | 100 | 60 | – | – |
| CCc1cccc(CC)c1N(Cn1nc(C)nc1C)C(=O)CCl [Compound 162] | – | 100 | 100 | – | 100 | 95 | 100 | 95 | – | – |
| CCc1ccccc1N(Cn1nc(C)cc1C)C(=O)CCl [Compound 36] | 95 | – | – | 95 | – | – | – | – | 100 | % damage (Setaria spp.; 0.5 kg/ha): 90%; % damage (Alopec. myosur.; 0.5 kg/ha): 90%; % damage (Amar. retro.; 0.5 kg/ha): 95%; % damage (Amar. retro.; 1.0 kg/ha): 95%; % damage (Echin. c.g.; 0.5 kg/ha): 80%; % damage (Sorgh. halep.; 0.5 kg/ha): 40%; % damage (Sorgh. halep.; 1.0 kg/ha): 40% |
| Cc1cc(C)n(CN(C(=O)CCl)c2ccccc2C(C)C)n1 [Compound 37] | 100 | – | – | 100 | – | – | – | – | 30 | % damage (Amar. retro.; 1.0 kg/ha): 100%; % damage (Cyp. diff.; 1.0 kg/ha): 100%; % damage (Sorgh. halep.; 1.0 kg/ha): 80% |
| Cc1cccc(C)c1N(Cn1cc(Cl)cn1)C(=O)CCl | 95 | 100 | – | 100 | 100 | 100 | – | – | 95 | % damage (Matric. spp.; 1.0 kg/ha): 75%; % damage (Matric. spp.; 2.0 kg/ha): 80%; % damage (Bromus spp.; 1.0 kg/ha): 92%; % damage (Bromus spp.; 2.0 kg/ha): 95%; % damage (Glyc. max; 1.0 kg/ha): 5%; % damage (Glyc. max; 2.0 kg/ha): 20%; % damage (Beta vulg.; 1.0 kg/ha): 3%; % damage (Beta vulg.; 2.0 kg/ha): 13% |
| Cc1cccc(C(C)C)c1N(Cn1cncn1)C(=O)CCl [Compound 131] | – | 100 | 80 | – | 100 | 70 | 100 | 80 | – | – |
| CCc1cccc(CC)c1N(Cn1cncn1)C(=O)CCl [Compound 130] | 95 | 100 | 100 | 100 | 100 | – | – | – | – | % damage (Gossyp. hirs.; 0.5 kg/ha): 20%; % damage (Gossyp. hirs.; 1.0 kg/ha): 30%; % damage (Gossyp. hirs.; 2.0 kg/ha): 30%; % damage (Setaria spp.; 0.5 kg/ha): 85%; % damage (Solanum nigrum; 0.5 kg/ha): 100%; % damage (Solanum nigrum; 1.0 kg/ha): 100%; % damage (Solanum nigrum; 2.0 kg/ha): 100%; % damage (Amar. retro.; 0.5 kg/ha): 95%; % damage (Amar. retro.; 1.0 kg/ha): 100%; % damage (Euph. gen.; 0.5 kg/ha): 60%; % damage (Euph. gen.; 1.0 kg/ha): 60%; % damage (Euph. gen.; 2.0 kg/ha): 100%; % damage (Echin. c.g.; 0.5 kg/ha): 95%; % damage (Glyc. max; 0.5 kg/ha): 20%; % damage (Glyc. max; 1.0 kg/ha): 20%; % damage (Glyc. max; 2.0 kg/ha): 20%; % damage (Cyper. escul.; 0.5 kg/ha): 40%; % damage (Cyper. escul.; 1.0 kg/ha): 70%; % damage (Cyper. escul.; 2.0 kg/ha): 80% |
| Cc1cccc(N(Cn2cccn2)C(=O)CCl)c1C [Compound 17] | – | 90 | 90 | – | 100 | 50 | 100 | 75 | – | – |
| Cc1ccn(CN(C(=O)CCl)c2c(C)cccc2C)n1 [Compound 67] | – | – | – | – | – | – | – | – | – | % damage (Amar. retro.; 0.25 kg/ha): 100%; % damage (Bromus spp.; 0.25 kg/ha): 100%; % damage (Sorgh. halep.; 0.25 kg/ha): 95% |
